Measured values: patent publication US6960470B1 (priority 1998, dated 2005)

Tested on: hippocampal slices from wt and Δ9 mutant (PS-1) animals
Type: cell-based
Details: flunitrazepam in the bathing medium; Δ9 mutant slices

CN1C(=O)CN=C(c2ccccc2F)c2cc([N+](=O)[O-])ccc21 [flunitrazepam]
potentiation in mutants (+FLU) compared with the wt (−FLU): potentiation to almost the wt levels
